Values of other authors as cited in patent US6346634B1, “Chemical compound containing a superoxide scavenger and an organic nitrate or nitrite moiety” (Teijin Limited, priority 1999, dated 2002).

Target: XO (Homo sapiens, UniProt P47989)
Conditions: inhibition of superoxide-generating NADH oxidase activity

XO, sequence (P47989 whole entry): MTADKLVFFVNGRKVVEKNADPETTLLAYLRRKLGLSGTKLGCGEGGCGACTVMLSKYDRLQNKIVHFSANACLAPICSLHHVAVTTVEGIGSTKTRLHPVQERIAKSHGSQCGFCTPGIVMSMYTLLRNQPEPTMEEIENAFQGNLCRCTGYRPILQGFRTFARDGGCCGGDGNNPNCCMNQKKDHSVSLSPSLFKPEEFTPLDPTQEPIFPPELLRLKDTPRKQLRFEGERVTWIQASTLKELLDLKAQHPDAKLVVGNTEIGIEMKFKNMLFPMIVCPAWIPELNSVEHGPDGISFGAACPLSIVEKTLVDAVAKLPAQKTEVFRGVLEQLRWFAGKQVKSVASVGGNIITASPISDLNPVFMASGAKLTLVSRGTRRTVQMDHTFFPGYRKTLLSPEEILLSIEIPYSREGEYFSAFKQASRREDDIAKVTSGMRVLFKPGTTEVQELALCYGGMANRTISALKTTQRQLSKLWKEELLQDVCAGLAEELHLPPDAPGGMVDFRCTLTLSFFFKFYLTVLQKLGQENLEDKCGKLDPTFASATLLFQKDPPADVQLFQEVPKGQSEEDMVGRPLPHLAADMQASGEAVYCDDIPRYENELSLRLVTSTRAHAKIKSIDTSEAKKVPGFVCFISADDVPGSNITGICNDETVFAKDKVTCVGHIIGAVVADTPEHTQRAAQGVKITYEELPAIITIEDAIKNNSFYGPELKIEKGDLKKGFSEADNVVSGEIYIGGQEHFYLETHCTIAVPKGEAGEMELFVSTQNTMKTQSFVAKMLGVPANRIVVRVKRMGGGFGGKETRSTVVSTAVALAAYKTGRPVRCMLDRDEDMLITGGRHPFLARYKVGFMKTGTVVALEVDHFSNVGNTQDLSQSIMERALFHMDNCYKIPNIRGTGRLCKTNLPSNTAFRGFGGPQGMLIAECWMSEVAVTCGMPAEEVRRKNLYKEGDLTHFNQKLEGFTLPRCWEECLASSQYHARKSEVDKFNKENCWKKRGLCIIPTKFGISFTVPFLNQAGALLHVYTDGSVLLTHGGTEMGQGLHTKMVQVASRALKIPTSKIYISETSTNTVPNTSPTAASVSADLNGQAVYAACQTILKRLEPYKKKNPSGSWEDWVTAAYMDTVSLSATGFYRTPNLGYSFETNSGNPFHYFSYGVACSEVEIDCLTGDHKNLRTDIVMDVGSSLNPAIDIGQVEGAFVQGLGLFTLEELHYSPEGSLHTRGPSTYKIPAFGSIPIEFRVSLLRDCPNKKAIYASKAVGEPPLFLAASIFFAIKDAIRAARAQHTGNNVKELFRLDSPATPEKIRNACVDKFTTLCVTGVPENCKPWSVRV

Row | Compound | NADH-oxidizing activity of XO
1 | O=c1[nH]c(=O)c2c[nH]nc2[nH]1 [oxypurinol] | not suppressible
2 | COc1cc(-c2cnn3c(=O)nc[n-]c23)ccc1[S+]([O-])c1ccccc1.[Na+] (centres unmarked) [BOF-4272] | not suppressible
3 | Oc1ncnc2[nH]ncc12 [allopurinol] | not suppressible
4 | Nc1c(-c2cccc(C(F)(F)F)c2)nsc1C(=O)O [Amfiutizole] | not suppressible
5 | c1ccc2c(c1)[I+]c1ccccc1-2 [diphenyleneiodonium] | blocked
